Measured values as given in US9868772B2 (INDIANA UNIVERSITY RESEARCH AND TECHNOLOGY CORPORATION, priority 2012, dated 2018).
pEC50: −log10 of the molar value. Numbered stars: 1 amine (or outer) side, 2 acyl side, 3 side chain; on linkers, the order of the positions; unused ones are H or OH. Square brackets hold non-standard residues; d marks the D form. Side chains are listed from the residue outwards. Peptide text beside a SMILES is read from it. * marks the point of attachment. γGlu = O=C(O)[C@H](CCC(=O)[*:2])N[*:1]; Palmitoyl = CCCCCCCCCCCCCCCC(=O)*; Sar = CNCC(=O)O

Experiments:
Assay in all cases: cAMP induction, firefly luciferase reporter assay in HEK293 cells co-transfected with receptor
Format in all cases: cell-based
GIP receptor = target: T1, GIP receptor (Homo sapiens, UniProt P48546)
T1 construct: expressed in transfected cells; host or cells: HEK293
T1 sequence (P48546 22-466): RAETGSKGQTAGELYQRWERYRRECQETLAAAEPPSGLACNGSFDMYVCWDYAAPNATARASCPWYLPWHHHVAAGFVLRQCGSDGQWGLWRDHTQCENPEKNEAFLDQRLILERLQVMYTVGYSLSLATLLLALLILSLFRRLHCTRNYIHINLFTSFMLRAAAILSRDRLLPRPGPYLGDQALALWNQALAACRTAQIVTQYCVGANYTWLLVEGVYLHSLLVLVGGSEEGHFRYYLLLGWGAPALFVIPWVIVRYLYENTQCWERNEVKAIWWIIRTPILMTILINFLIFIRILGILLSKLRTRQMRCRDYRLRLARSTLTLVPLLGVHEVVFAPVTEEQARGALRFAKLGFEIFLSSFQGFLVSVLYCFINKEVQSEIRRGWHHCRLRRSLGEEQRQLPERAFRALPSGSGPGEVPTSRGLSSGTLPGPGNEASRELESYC
Protocol: (§1) The ability of glucagon analogs to induce cAMP was measured in a firefly luciferase-based reporter assay. […] At the end of the incubation 100 microliters of LucLite luminescence substrate reagent (Perkin-Elmer, Wellesley, Mass.) were added to each well. […] Effective 50% concentrations were calculated by using Origin software (OriginLab, Northampton, Mass.

GLP-1 receptor = target: T2, GLP-1 receptor (Homo sapiens, UniProt P43220)
T2 construct: expressed in transfected cells; host or cells: HEK293
Protocol: as §1

glucagon receptor = target: T3, glucagon receptor (Homo sapiens, UniProt P47871)
T3 construct: expressed in transfected cells; host or cells: HEK293
Protocol: as §1

[1] = Table 1, analogs of SEQ ID NO: 37
[2] = Table 2, analogs of SEQ ID NO: 10

T2 sequence (P43220 24-463): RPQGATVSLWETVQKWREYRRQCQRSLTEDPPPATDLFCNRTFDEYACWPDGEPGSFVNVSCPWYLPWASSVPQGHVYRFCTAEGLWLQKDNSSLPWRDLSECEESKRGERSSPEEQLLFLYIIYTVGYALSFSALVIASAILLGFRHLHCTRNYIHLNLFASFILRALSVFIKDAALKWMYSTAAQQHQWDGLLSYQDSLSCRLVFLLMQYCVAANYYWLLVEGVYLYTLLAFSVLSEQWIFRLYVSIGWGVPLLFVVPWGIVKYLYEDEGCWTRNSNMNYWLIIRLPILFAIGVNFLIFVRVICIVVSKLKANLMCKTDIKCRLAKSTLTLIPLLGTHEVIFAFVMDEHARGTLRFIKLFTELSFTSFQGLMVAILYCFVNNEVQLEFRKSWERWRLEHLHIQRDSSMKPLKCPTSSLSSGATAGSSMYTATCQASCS
T3 sequence (P47871 26-477): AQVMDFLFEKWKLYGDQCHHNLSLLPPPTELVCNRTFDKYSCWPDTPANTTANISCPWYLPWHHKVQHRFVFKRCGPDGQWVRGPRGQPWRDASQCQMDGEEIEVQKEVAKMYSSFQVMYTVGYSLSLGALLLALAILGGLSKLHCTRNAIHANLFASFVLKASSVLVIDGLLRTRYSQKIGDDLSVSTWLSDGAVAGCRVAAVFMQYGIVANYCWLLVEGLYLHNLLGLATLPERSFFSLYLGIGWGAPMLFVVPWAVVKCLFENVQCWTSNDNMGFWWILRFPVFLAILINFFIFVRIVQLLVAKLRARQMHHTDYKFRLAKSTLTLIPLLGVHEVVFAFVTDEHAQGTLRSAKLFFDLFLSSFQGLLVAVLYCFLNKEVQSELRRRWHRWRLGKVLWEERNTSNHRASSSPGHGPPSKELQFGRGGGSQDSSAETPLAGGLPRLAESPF

CCCCCCCCCCCCCCCC(=O)N[C@@H](CCC(=O)NCCCC[C@H](NC(=O)[C@H](CC(=O)O)NC(=O)[C@H](CO)NC(=O)[C@@H](NC(=O)[C@H](Cc1ccccc1)NC(=O)[C@@H](NC(=O)CNC(=O)[C@H](CCC(N)=O)NC(=O)[C@H](C)NC(=O)[C@@H](Cc1c[nH]cn1)NC(C)=O)[C@@H](C)O)[C@@H](C)O)C(=O)N[C@@H](CO)C(=O)N[C@@H](CCCCN)C(=O)N[C@@H](Cc1ccc(O)cc1)C(=O)N[C@@H](CC(C)C)C(=O)N[C@@H](CC(=O)O)C(=O)N[C@@H](CCC(=O)O)C(=O)N[C@@H](CCCNC(=N)N)C(=O)N[C@@H](C)C(=O)N[C@@H](C)C(=O)N[C@@H](CCC(N)=O)C(=O)N[C@@H](CC(=O)O)C(=O)N[C@@H](Cc1ccccc1)C(=O)N[C@H](C(=O)N[C@@H](CCC(N)=O)C(=O)N[C@@H](Cc1c[nH]c2ccccc12)C(=O)N[C@@H](CC(C)C)C(=O)N[C@@H](CC(C)C)C(=O)N[C@@H](CCC(=O)O)C(=O)NCC(=O)NCC(=O)N1CCC[C@H]1C(=O)N[C@@H](CO)C(=O)N[C@@H](CO)C(=O)NCC(=O)N[C@@H](C)C(=O)N1CCC[C@H]1C(=O)N1CCC[C@H]1C(=O)N1CCC[C@H]1C(=O)N[C@@H](CO)C(N)=O)C(C)C)C(=O)O [compound 13] was tested, and the pEC50 (GIP receptor; [1]) was 11.40, the pEC50 (GLP-1 receptor; [1]) was 11.40 and the pEC50 (glucagon receptor; [1]) was 11.70.

CCCCCCCCCCCCCCCC(=O)N[C@@H](CCC(=O)NCCCC[C@H](NC(=O)[C@H](CC(=O)O)NC(=O)[C@H](CO)NC(=O)[C@@H](NC(=O)[C@H](Cc1ccccc1)NC(=O)[C@@H](NC(=O)CNC(=O)[C@H](CCC(=O)O)NC(=O)[C@H](C)NC(=O)[C@@H](Cc1ccc(O)cc1)NC(C)=O)[C@@H](C)O)[C@@H](C)O)C(=O)N[C@@H](CO)C(=O)N[C@@H](CCCCN)C(=O)N[C@@H](Cc1ccc(O)cc1)C(=O)N[C@@H](CC(C)C)C(=O)N[C@@H](CC(=O)O)C(=O)N[C@@H](CCC(=O)O)C(=O)N[C@@H](CCCNC(=N)N)C(=O)N[C@@H](C)C(=O)N[C@@H](C)C(=O)N[C@@H](CCC(N)=O)C(=O)N[C@@H](CC(=O)O)C(=O)N[C@@H](Cc1ccccc1)C(=O)N[C@H](C(=O)N[C@@H](CCC(N)=O)C(=O)N[C@@H](Cc1c[nH]c2ccccc12)C(=O)N[C@@H](CC(C)C)C(=O)N[C@@H](CC(C)C)C(=O)N[C@@H](CCC(=O)O)C(=O)N[C@@H](C)C(=O)NCC(=O)N1CCC[C@H]1C(=O)N[C@@H](CO)C(=O)N[C@@H](CO)C(=O)NCC(=O)N[C@@H](C)C(=O)N1CCC[C@H]1C(=O)N1CCC[C@H]1C(=O)N1CCC[C@H]1C(=O)N[C@@H](CO)C(N)=O)C(C)C)C(=O)O [compound 144] (Ac-[dY]AEGTFTSDK([γGlu-Palmitoyl])SKYLDERAAQDFVQWLLEAGPSSGAPPPS-NH2) showed a pEC50 (GIP receptor; [2]) of 11.52, a pEC50 (GLP-1 receptor; [2]) of 10.77 and a pEC50 (glucagon receptor; [2]) of 8.89.

CCCCCCCCCCCCCCCC(=O)N[C@@H](CCC(=O)NCCCC[C@H](NC(=O)[C@H](CC(=O)O)NC(=O)[C@H](CO)NC(=O)[C@@H](NC(=O)[C@H](Cc1ccccc1)NC(=O)[C@@H](NC(=O)CNC(=O)[C@H](CCC(=O)O)NC(=O)[C@H](C)NC(=O)[C@@H](Cc1c[nH]cn1)NC(C)=O)[C@@H](C)O)[C@@H](C)O)C(=O)N[C@@H](CO)C(=O)N[C@@H](CCCCN)C(=O)N[C@@H](Cc1ccc(O)cc1)C(=O)N[C@@H](CC(C)C)C(=O)N[C@@H](CC(=O)O)C(=O)N[C@@H](CCC(=O)O)C(=O)N[C@@H](CCCNC(=N)N)C(=O)N[C@@H](C)C(=O)N[C@@H](C)C(=O)N[C@@H](CCC(N)=O)C(=O)N[C@@H](CC(=O)O)C(=O)N[C@@H](Cc1ccccc1)C(=O)N[C@H](C(=O)N[C@@H](CCC(N)=O)C(=O)N[C@@H](Cc1c[nH]c2ccccc12)C(=O)N[C@@H](CC(C)C)C(=O)N[C@@H](CC(C)C)C(=O)N[C@@H](CCC(=O)O)C(=O)N[C@@H](C)C(=O)NCC(=O)N1CCC[C@H]1C(=O)N[C@@H](CO)C(=O)N[C@@H](CO)C(=O)NCC(=O)N[C@@H](C)C(=O)N1CCC[C@H]1C(=O)N1CCC[C@H]1C(=O)N1CCC[C@H]1C(=O)N[C@@H](CO)C(N)=O)C(C)C)C(=O)O [compound 154] (Ac-[dH]AEGTFTSDK([γGlu-Palmitoyl])SKYLDERAAQDFVQWLLEAGPSSGAPPPS-NH2) showed a pEC50 (GIP receptor; [2]) of 10.62, a pEC50 (GLP-1 receptor; [2]) of 11.40 and a pEC50 (glucagon receptor; [2]) of 9.07.

CCCCCCCCCCCCCCCC(=O)N[C@@H](CCC(=O)NCCCC[C@H](NC(=O)[C@H](CC(=O)O)NC(=O)[C@H](CO)NC(=O)[C@@H](NC(=O)[C@H](Cc1ccccc1)NC(=O)[C@@H](NC(=O)CNC(=O)[C@H](CCC(N)=O)NC(=O)CN(C)C(=O)[C@@H](N)Cc1c[nH]cn1)[C@@H](C)O)[C@@H](C)O)C(=O)N[C@@H](CO)C(=O)N[C@@H](CCCCN)C(=O)N[C@@H](Cc1ccc(O)cc1)C(=O)N[C@@H](CC(C)C)C(=O)N[C@@H](CC(=O)O)C(=O)N[C@@H](CCC(=O)O)C(=O)N[C@@H](CCCNC(=N)N)C(=O)N[C@@H](C)C(=O)N[C@@H](C)C(=O)N[C@@H](CCC(N)=O)C(=O)N[C@@H](CC(=O)O)C(=O)N[C@@H](Cc1ccccc1)C(=O)N[C@H](C(=O)N[C@@H](CCC(N)=O)C(=O)N[C@@H](Cc1c[nH]c2ccccc12)C(=O)N[C@@H](CC(C)C)C(=O)N[C@@H](CC(C)C)C(=O)N[C@@H](CCC(=O)O)C(=O)NCC(=O)NCC(=O)N1CCC[C@H]1C(=O)N[C@@H](CO)C(=O)N[C@@H](CO)C(=O)NCC(=O)N[C@@H](C)C(=O)N1CCC[C@H]1C(=O)N1CCC[C@H]1C(=O)N1CCC[C@H]1C(=O)N[C@@H](CO)C(N)=O)C(C)C)C(=O)O [compound 28] (H-H[Sar]QGTFTSDK([γGlu-Palmitoyl])SKYLDERAAQDFVQWLLEGGPSSGAPPPS-NH2) showed a pEC50 (GIP receptor; [1]) of 10.09, a pEC50 (GLP-1 receptor; [1]) of 11.70 and a pEC50 (glucagon receptor; [1]) of 10.66.

For CCCCCCCCCCCCCCCC(=O)N[C@@H](CCC(=O)NCCCC[C@H](NC(=O)[C@H](CC(=O)O)NC(=O)[C@H](CO)NC(=O)[C@@H](NC(=O)[C@H](Cc1ccccc1)NC(=O)[C@@H](NC(=O)CNC(=O)[C@H](CCC(=O)O)NC(=O)[C@H](C)NC(=O)[C@@H](Cc1ccc(O)cc1)NC(C)=O)[C@@H](C)O)[C@@H](C)O)C(=O)N[C@@H](CO)C(=O)N[C@@H](CCCCN)C(=O)N[C@@H](Cc1ccc(O)cc1)C(=O)N[C@@H](CC(C)C)C(=O)N[C@@H](CC(=O)O)C(=O)N[C@@H](CCC(=O)O)C(=O)N[C@@H](CCCNC(=N)N)C(=O)N[C@@H](C)C(=O)N[C@@H](C)C(=O)N[C@@H](CCC(N)=O)C(=O)N[C@@H](CC(=O)O)C(=O)N[C@@H](Cc1ccccc1)C(=O)N[C@H](C(=O)N[C@@H](CCC(N)=O)C(=O)N[C@@H](Cc1c[nH]c2ccccc12)C(=O)N[C@@H](CC(C)C)C(=O)N[C@@H](CC(C)C)C(=O)N[C@@H](CCC(=O)O)C(=O)NCC(=O)NCC(=O)N1CCC[C@H]1C(=O)N[C@@H](CO)C(=O)N[C@@H](CO)C(=O)NCC(=O)N[C@@H](C)C(=O)N1CCC[C@H]1C(=O)N1CCC[C@H]1C(=O)N1CCC[C@H]1C(=O)N[C@@H](CO)C(N)=O)C(C)C)C(=O)O [compound 141], the pEC50 (GIP receptor; [2]) was 11.70, the pEC50 (GLP-1 receptor; [2]) was 11.22 and the pEC50 (glucagon receptor; [2]) was 9.38.
